This note sets out measurements from patent publication US12616716B2, “Wound healing dressings and formulations and methods of use thereof” (Polaroid IP B.V., priority 2023, dated 2026).

≈ marks a conversion by molar mass, not a printed value. Where only a bound is given, the exact number is not on record here.

The test system of assay [1] is Enterococcus faecalis EF51299. Kind of assay: MBC, spot plating after 24 h in MH broth. The settings on record: D = Enterococcus faecalis EF51299.
Procedure: (§5) To determine MBC compound concentrations breakpoints were estimated from MIC curves. Overnight cultures were set up as described above for all bacterial strains. The following day overnight cultures were adjusted to give a cell density of 5×10^5 cells per mL. Briefly, cultures were adjusted to the McFarland standard (0.08-0.12) and diluted (1:150). Adjusted cultures were inoculated into 96 well plates with 50 μL sterile Muller-Hinton broth (MHB) and 2 concentrations of each compound. […] MBC cultures were quantified by serial dilution in a 96 well plate and spot plating onto Muller-Hinton agar (MHA). MHA plates were incubated at 37° C. for 24 h and counted. Results are presented as CFU per mL.
(§6) To determine MBC compound concentrations, breakpoints were estimated from MIC curves. Overnight cultures were set up as described above for all bacterial strains. The following day overnight cultures were adjusted to give a cell density of 5×10^5 cells per mL. Briefly, cultures were adjusted to the McFarland standard (0.08-0.12) and diluted (1:150). Adjusted cultures were inoculated into 96 well plates with 50 μL sterile Muller-Hinton broth (MHB) and 2 concentrations of each compound. […] MBC cultures were quantified by serial dilution in a 96 well plate and spot plating onto Muller-Hinton agar (MHA). MHA plates were incubated at 37° C. for 24 hours and counted. […]
The subject of assay [2] is Staphylococcus aureus ATCC 29213. The experiment in a line: MBC, spot plating after 24 h in MH broth. The settings on record: A = Staphylococcus aureus 29213.
Procedure: as §5
(§7) To determine MBC compound concentrations, breakpoints were estimated from MIC curves. Overnight cultures were set up as described above for all bacterial strains. The following day overnight cultures were adjusted to give a cell density of 5×10^5 cells per mL. Briefly, cultures were adjusted to the McFarland standard (0.08-0.12) and diluted (1:150). Adjusted cultures were inoculated into 96 well plates with 50 μL sterile Muller-Hinton broth (MHB) and 2 concentrations of each compound. […] MBC cultures were quantified by serial dilution in a 96 well plate and spot plating onto Muller-Hinton agar (MHA). MHA plates were incubated at 37° C. for 24 hours and counted.
(§8) These compounds were tested for their MBC against a panel of ATCC and nosocomial bacteria.
The subject of assay [3] is Staphylococcus aureus MR1. Kind of assay: MBC, spot plating after 24 h in MH broth. The settings on record: B = Staphylococcus aureus MR1.
Procedure: as §5, §7, §8
Assay [4] has as its system Enterococcus faecalis EF19433. The experiment in a line: MBC, spot plating after 24 h in MH broth. To be noted: E = Enterococcus faecalis EF19433.
Procedure: as §5, §7, §8
The test system of assay [5] is Pseudomonas aeruginosa 27853. Kind of assay: MBC, spot plating after 24 h in MH broth. The settings on record: G = Pseudomonas aeruginosa 27853.
Procedure: as §5, §6
The subject of assay [6] is Klebsiella pneumoniae KL1. The experiment in a line: MBC, spot plating after 24 h in MH broth. The settings on record: F = Klebisella pneumoniae KL1.
Procedure: as §5, §6
The subject of assay [7] is Escherichia coli EC25922. Kind of assay: MBC, spot plating after 24 h in MH broth. The settings on record: H = Escherichia coli EC25922.
Procedure: as §5, §7, §8
In assay [8] the test system is Staphylococcus aureus NRS384. The experiment in a line: MBC, spot plating after 24 h in MH broth. To be noted: C = Staphylococcus aureus NRS384.
Procedure: as §5, §6
In assay [9] the test system is Escherichia coli EC25922. Kind of assay: MIC, broth microdilution in MH broth with resazurin. To be noted: Escherichia coli, EC25922, read-out: MIC Concentration. It counts as cell-based.
For assay [10], the system named is Pseudomonas aeruginosa 27853. Described as above. To be noted: Pseudomonas aeruginosa, 27853, read-out: MIC Concentration. The class given is cell-based.
Assay [11] relates to Staphylococcus aureus MR1. The description is as above. It counts as cell-based. To be noted: Staphylococcus aureus, MR1, read-out: MIC Concentration.
The subject of assay [12] is S. aureus NRS 384. The experiment in a line: Mouse Staphylococcus aureus-induced wound infection model, bacteria load in wound site. The settings on record: for Ig(CFU/wound site) 12 h p.i. / ΔIg(CFU/wound site) vs 12 h infection control / Ig(CFU/wound site) 24 h p.i. / ΔIg(CFU/wound site) vs 24 h infection control / Ig (CFU/wound site) / ΔIg(CFU/wound site) vs infection control: twice a day.

Assay [13] concerns Staphylococcus aureus ATCC 29213. The experiment in a line: MIC, broth microdilution in MH broth with resazurin. The class given is cell-based. To be noted: Staphylococcus aureus, ATCC29213, read-out: MIC Concentration. For orientation: Dilution methods test growth across graded concentrations, often in twofold steps.
In assay [14] the test system is Staphylococcus aureus NRS384. Kind of assay: Murine wound infection model, in vivo antimicrobial efficacy (bacterial CFU/wound). The settings on record: Study 2 pilot; daily application; 24 hrs and 72 hrs post-seeding.
The test system of assay [15] is Staphylococcus aureus NRS384. Kind of assay: MIC, broth microdilution in MH broth with resazurin. It counts as cell-based. The settings on record: Staphylococcus aureus, NRS384, read-out: MIC Concentration.
The test system of assay [16] is Klebsiella pneumoniae KL1. The assay is described as above. The class given is cell-based. To be noted: Klebsiella pneumoniae, KL1, read-out: MIC Concentration.
Assay [17] has as its system Enterococcus faecalis EF19433. The description is as above. It counts as cell-based. To be noted: Enterococcus faecalis, EF19433, read-out: MIC Concentration.
Assay [18] relates to Acinetobacter baumannii. Kind of assay: MIC, CLSI broth microdilution in CAMHB. It counts as cell-based. The settings on record: NCTC13304, A. baumannii (NCTC 13304). As to the method: (§1) The bacterial strains tested included CLSI and NCTC reference and quality control (QC) strains from the following organism groups: Acinetobacter baumannii, Enterococcus faecalis, Escherichia coli, Klebsiella pneumoniae, Pseudomonas aeruginosa, and Staphylococcus aureus. Some strains contained molecularly characterized β-lactamase genes including carbapenemase (KPC-2) and extended-spectrum β-lactamase (SHV-18) genes.
(§2) Isolates were tested for antimicrobial susceptibility using broth microdilution methodology according to CLSI M07 (2018) and M100 (2023) guidelines. Frozen-form, 96-well MIC panels were produced. The testing medium was cation-adjusted Mueller-Hinton broth (CAMHB). Single MIC values were measured for 8 test compounds against each of the 9 strains tested. Additional MIC values were generated for levofloxacin (comparator agent) against several of the QC strains.
(§3) Compound stock solutions were prepared and allowed to mix overnight as needed. The pH of each stock solution was checked and adjusted as necessary until a minimum pH of 5.0 was achieved (pH range 5.0-7.0). Some compound stock solutions also required the addition of heat to assist in solubilization.
(§4) Current CLSI quality assurance practices were followed when performing the broth microdilution susceptibility testing. MIC values were validated by concurrently testing a control agent (levofloxacin) against CLSI-recommended QC strains including S. aureus ATCC 29213 (methicillin susceptible), E. coli ATCC 25922, Enterococcus faecalis ATCC 29212, and P. aeruginosa ATCC 27853. The initial inoculum density (target, 5×10^5 CFU/mL) during susceptibility testing was monitored by bacterial colony counts.

Assay [19] concerns Enterococcus faecalis. The experiment in a line: MIC, CLSI broth microdilution in CAMHB. The class given is cell-based. As to the method: as §1, §2, §3, §4
Assay [20] deals with Escherichia coli. The experiment in a line: MIC, CLSI broth microdilution in CAMHB. It counts as cell-based. As to the method:
as §1, §2, §3, §4

In assay [21] the test system is Pseudomonas aeruginosa. The experiment in a line: MIC, CLSI broth microdilution in CAMHB. The class given is cell-based. To be noted: ATCC27853, P. aeruginosa (ATCC 27853). As to the method:
as §1, §2, §3, §4

The test system of assay [22] is Staphylococcus aureus. The experiment in a line: MIC, CLSI broth microdilution in CAMHB. It counts as cell-based. The settings on record: ATCC29213, S. aureus (ATCC 29213). The procedure:
as §1, §2, §3, §4

The test system of assay [23] is Klebsiella pneumoniae. The experiment in a line: MIC, CLSI broth microdilution in CAMHB. It counts as cell-based. As to the method: as §1, §2, §3, §4
Setting [24] is: 1 mg/ml, 10 μL/wound site, 10 μg/wound site, 12 h p.i.
[25] abbreviates: 1 mg/ml, 10 μL/wound site, 10 μg/wound site, 24 h p.i.
The mark [26] stands for this setting: Study II, 1 mg/ml, 10 μL/wound site.
[27] abbreviates: Study III, 48 h p.i., 1 mg/ml, 10 μL/wound site.
The mark [28] stands for this setting: Study III, 72 h p.i., 1 mg/ml, 10 μL/wound site.
The mark [29] stands for this setting: Study V, 0.2 mg/ml, 50 μL/wound site, 24 h p.i.
The mark [30] stands for this setting: Study V, 0.2 mg/ml, 50 μL/wound site, 72 h p.i.

As to `CN[C@H](CC(C)C)C(=O)N[C@H]1C(=O)N[C@@H](CC(N)=O)C(=O)N[C@H]2C(=O)N[C@H]3C(=O)N[C@H](C(=O)N[C@H](C(=O)O)c4cc(O)cc(O)c4-c4cc3ccc4O)[C@H](O)c3ccc(c(Cl)c3)Oc3cc2cc(c3O[C@@H]2O[C@H](CO)[C@@H](O)[C@H](O)[C@H]2O[C@H]2C[C@](C)(N)[C@H](O)[C@H](C)O2)Oc2ccc(cc2Cl)[C@H]1O` [Van], the “MBC Concentration” value came out at 0.04 µM (≈ 0.058 µg/mL) in assay [1]; 0.02 µM (≈ 0.029 µg/mL) in assay [2]; 0.02 µM (≈ 0.029 µg/mL) in assay [3]; 0.08 µM (≈ 0.116 µg/mL) in [4]; 2.50 µM (≈ 3.62 µg/mL) in assay [5]; 1.25 µM (≈ 1.81 µg/mL) in [6]. For the same compound, the “MBC Concentration” value is 0.31 µM (≈ 0.449 µg/mL) in assay [7] and 0.02 µM (≈ 0.029 µg/mL) in assay [8].

Consider `CN[C@H](CC(C)C)C(=O)N[C@H]1C(=O)N[C@@H](CC(N)=O)C(=O)N[C@H]2C(=O)N[C@H]3C(=O)N[C@H](C(=O)N[C@H](C(=O)O)c4cc(O)cc(O)c4-c4cc3ccc4O)[C@H](O)c3ccc(c(Cl)c3)Oc3cc2cc(c3O[C@@H]2O[C@H](CO)[C@@H](O)[C@H](O)[C@H]2O[C@H]2C[C@](C)(N)[C@H](O)[C@H](C)O2)Oc2ccc(cc2Cl)[C@H]1O` [Vancomycin], for which the MIC was 0.63 µM (≈ 0.913 µg/mL) in assay [9]; 5 µM (≈ 7.25 µg/mL) in [10]; 0.04 µM (≈ 0.058 µg/mL) in assay [11]; 0.04 µM (≈ 0.058 µg/mL) in assay [13]; 0.04 µM (≈ 0.058 µg/mL) in [15]; 0.63 µM (≈ 0.913 µg/mL) in [16]. The MIC in assay [17] was 5 µM (≈ 7.25 µg/mL). Also, the “Ig(CFU/wound site) 12 h p.i.” value is listed as 8.02 ± 0.35 Ig(CFU/wound site) in [12] (setting [24]); 8.47 ± 0.22 Ig(CFU/wound site) in [12] (Study I, 10 μL/wound site); 7.83 ± 0.44 Ig(CFU/wound site) in assay [12] (setting [26]). For the same compound, the “ΔIg(CFU/wound site) vs 12 h infection control” value in assay [12] (setting [24]) is −0.57 ± 0.35 Ig(CFU/wound site); in assay [12] (Study I, 10 μL/wound site), −0.11 ± 0.22 Ig(CFU/wound site); in assay [12] (setting [26]), −0.76 ± 0.44 Ig(CFU/wound site). Moreover, the “Ig(CFU/wound site) 24 h p.i.” value is recorded as 7.29 ± 0.32 Ig(CFU/wound site) in assay [12] (setting [25]); 7.67 ± 0.60 Ig(CFU/wound site) in [12] (Study I, 10 μL/wound site); 7.50 ± 0.54 Ig(CFU/wound site) in assay [12] (setting [26]). The “ΔIg(CFU/wound site) vs 24 h infection control” value in [12] (setting [25]) is recorded as −1.44 ± 0.32 Ig(CFU/wound site); in assay [12] (Study I, 10 μL/wound site), −1.12 ± 0.60 Ig(CFU/wound site); in [12] (setting [26]), −1.36 ± 0.54 Ig(CFU/wound site). The “bacterial load decreased by, compared with 24 h infection control group” value in assay [12] (Study I, after twice administrations) stood at 1.12 Ig CFU/wound site. The “effect of a single dose at 12-hour post infection” value in [12] (Study I, single dose at 10 μg) is listed as “not manifest”. Moreover, the “Ig (CFU/wound site)” value was 7.67 ± 0.24 Ig (CFU/wound site) in [12] (Study III, 24 h p.i., 1 mg/ml, 10 μL/wound site, 10 μg/wound site, inoculum 2.50E+06 CFU/wound site); 4.37 ± 0.26 Ig (CFU/wound site) in [12] (Study III, 24 h p.i., 1 mg/ml, 50 μL/wound site, 50 μg/wound site); 5.29 ± 0.77 Ig (CFU/wound site) in assay [12] (setting [27]); 5.12 ± 0.65 Ig (CFU/wound site) in assay [12] (setting [28]); 6.07 ± 0.52 Ig(CFU/wound site) in [12] (setting [29]); 5.05 ± 0.20 Ig(CFU/wound site) in assay [12] (setting [30]). The “ΔIg(CFU/wound site) vs infection control” value is −1.11 ± 0.24 Ig(CFU/wound site) in assay [12] (Study III, 24 h p.i., 1 mg/ml, 10 μL/wound site); −4.40 ± 0.26 Ig(CFU/wound site) in [12] (Study III, 24 h p.i., 1 mg/ml, 50 μL/wound site); −3.28 ± 0.77 Ig(CFU/wound site) in assay [12] (setting [27]); −2.83 ± 0.65 Ig(CFU/wound site) in assay [12] (setting [28]); −2.39 ± 0.52 Ig(CFU/wound site) in [12] (setting [29]); −3.22 ± 0.20 Ig(CFU/wound site) in assay [12] (setting [30]). The “log reduction in wound S. aureus” value in assay [14] was determined as 1 log.

Take `C[C@H]1COc2c(N3CCN(C)CC3)c(F)cc3c(=O)c(C(=O)O)cn1c23` [levofloxacin]: the MIC amounted to 4 µg/mL (≈ 11.1 µM) in assay [18]; 1 µg/mL (≈ 2.77 µM) in assay [19] (ATCC29212, E. faecalis (ATCC 29212)); 0.5 µg/mL (≈ 1.38 µM) in [19] (ATCC51299, E. faecalis (ATCC 51299)); 0.015 µg/mL (≈ 0.0415 µM) in assay [20] (ATCC25922, E. coli (ATCC 25922)); 0.03 µg/mL (≈ 0.083 µM) in assay [20] (ATCCBAA2452, E. coli (ATCC BAA-2452)); 1 µg/mL (≈ 2.77 µM) in assay [21]. Further, the MIC was 0.12 µg/mL (≈ 0.332 µM) in [22]; 0.5 µg/mL (≈ 1.38 µM) in assay [23] (ATCC700603, K. pneumoniae (ATCC 700603)); above 8 µg/mL in [23] (BAA1705, K. pneumoniae (ATCC BAA 1705)).
